Patent US20080171737A1 (Wyeth, priority 2006, published 2008)

Biological target: T1, human hNET (Homo sapiens, UniProt P23975)
T1 construct: expressed in transfected cells; host or cells: MDCK-Net6 (MDCK cells stably transfected with hNET)
Test: Functional norepinephrine reuptake assay, Procedure B (6,000 cells/well)
Assay type: cell-based
Conditions: MDCK-Net6 cells, 6,000 cells/well, 16 nM 3H-norepinephrine; read-out: Procedure B hNET uptake IC50
Method: For screening, 25 μl aliquots of compound solution at a 1 μM or 10 μM final concentration was delivered directly to cells.
For IC50 determinations, stock compounds were prepared at 10 mM from powder. The stock solution was diluted according to compound testing range. […] On the day of assay, 25 μl of compound solution at the specified concentrations were added to the plates containing cells. A DMSO stock of desipramine was prepared at 10 mM in DMSO and diluted for a final concentration of 20 μM to determine the non-specific reuptake.
MDCK-Net6 cells, stably transfected with human hNET (Pacholczyk, 1991), were maintained in growth media [high glucose DMEM (Gibco Cat. 11995), 10% FBS (dialyzed, heat-inactivated, Sigma, dialysed, heat inactivated, Lot# K0922 or equivalent) 1xPen/Strep, and 500 μg/ml G418 (Gibco Cat. 10131)]. Cells were plated at 300,000/T75 flask and cells split twice weekly.
Cells were plated at 50,000 cells/well (Procedure A) or 6,000 cells/well (Procedure B) on day 1 in BD Falcon Microtest 96-well sterile cell culture plates, Optilux White/Clear Bottom TC plate (VWR; # 62406-466 or equivalent) in growth media and maintained in a cell incubator (37° C., 5% CO2). On Day 2, cells were removed from the cell incubator and the growth media is replaced by 200 μl of assay buffer (25 mm HEPES 120 mM NaCL; 5 mM KCl; 2.5 mM CaCl2; 1.2 mM MgSO4; 2 mg/ml glucose (pH 7.4, 37° C.)) containing 0.2 mg/ml ascorbic acid and 1 μM parglyine. For screening, 25 μl of compound in 4% DMSO was added directly to each well and the plate was incubated for 5 minutes (37° C.). […] The reaction is aspirated from the plate and the cells washed with 250 μl of 50 mM Tris Buffer (4° C.). The plates were left to dry for 1 hour. The cells were lysed using 0.25 M NaOH solution then placed on a shake table and vigorously shaken for 10 minutes. After cell lysis, 100 μl of Microscint 20 (PerkinElmer; #87-051101) was added to the plates and the plates were sealed with film tape and replaced on the shake table for a minimum of 10 minutes. The plates were counted in a TopCount counter (PerkinElmer).
% inhibition=[1−((mean cpm test compound wells−mean cpm non-specific wells)/(mean cpm control wells−mean cpm non-specific wells))]×100
For IC50 determination, raw cpm values were generated in a data file from the TopCount counter. The data was organized using the Microsoft Excel and transferred into PRIZM graphing and statistical program, which calculated the estimated IC50 value. Calculation of IC50 values was made using non-linear regression analysis with a sigmoidal dose response with variable slope. The statistical program used wells containing ^3H norepinephrine only as the maximal NE reuptake determinant and wells containing ^3H norepinephrine plus 20 μM desipramine (AHR-9543) as the minimal NE reuptake determinant (non-specific determinant). Estimation of the IC50 value was completed on a log scale and the line was fit between the maximal and minimal NE reuptake values.

T1 sequence (P23975 whole entry): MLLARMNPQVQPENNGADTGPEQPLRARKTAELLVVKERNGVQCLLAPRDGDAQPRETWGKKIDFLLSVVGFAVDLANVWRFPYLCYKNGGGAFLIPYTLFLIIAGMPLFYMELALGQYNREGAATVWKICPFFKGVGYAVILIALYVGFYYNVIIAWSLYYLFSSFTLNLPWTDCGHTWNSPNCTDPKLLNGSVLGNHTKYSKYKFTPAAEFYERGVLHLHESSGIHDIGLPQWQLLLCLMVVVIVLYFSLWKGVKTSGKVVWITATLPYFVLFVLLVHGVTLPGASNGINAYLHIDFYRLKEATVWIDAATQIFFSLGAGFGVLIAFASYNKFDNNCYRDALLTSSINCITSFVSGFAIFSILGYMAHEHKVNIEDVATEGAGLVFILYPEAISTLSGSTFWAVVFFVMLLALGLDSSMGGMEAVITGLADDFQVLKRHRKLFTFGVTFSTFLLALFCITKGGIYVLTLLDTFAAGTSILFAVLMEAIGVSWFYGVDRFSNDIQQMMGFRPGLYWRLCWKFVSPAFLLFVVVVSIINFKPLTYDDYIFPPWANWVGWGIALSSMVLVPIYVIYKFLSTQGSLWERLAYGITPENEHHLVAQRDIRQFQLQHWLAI

IC50	SMILES
62 nM	CNCCCC1Cc2ccccc2N(c2ccc(F)cc2F)S1(=O)=O (racemic) [Example 99, 3-[1-(2,4-difluorophenyl)-2,2-dioxido-3,4-dihydro-1H-2,1-benzothiazin-3-yl]-N-methylpropan-1-amine]
92 nM	CNCCCC1Cc2cc(F)ccc2N(c2ccc(F)cc2F)S1(=O)=O (racemic) [Example 111, 3-[1-(2,4-difluorophenyl)-6-fluoro-2,2-dioxido-3,4-dihydro-1H-2,1-benzothiazin-3-yl]-N-methylpropan-1-amine]
10 nM	CNCCCC1Cc2ccccc2N(c2c(F)cccc2F)S1(=O)=O (racemic) [Example 120, 3-[1-(2,6-difluorophenyl)-2,2-dioxido-3,4-dihydro-1H-2,1-benzothiazin-3-yl]-N-methylpropan-1-amine]
256 nM	CNCCCC1Cc2ccccc2N(c2cccnc2)S1(=O)=O (racemic) [Example 123, 3-(2,2-dioxido-1-pyridin-3-yl-3,4-dihydro-1H-2,1-benzothiazin-3-yl)-N-methylpropan-1-amine]
98 nM	CNCCCC1Cc2ccccc2N(c2ccccn2)S1(=O)=O (racemic) [Example 126, 3-(2,2-dioxido-1-pyridin-2-yl-3,4-dihydro-1H-2,1-benzothiazin-3-yl)-N-methylpropan-1-amine]
74 nM	CNCCCC1Cc2cc(F)ccc2N(c2cccc(F)c2F)S1(=O)=O (racemic) [Example 145, 3-[1-(2,3-difluorophenyl)-6-fluoro-2,2-dioxido-3,4-dihydro-1H-2,1-benzothiazin-3-yl]-N-methylpropan-1-amine]
51 nM	CNCCCC1Cc2cc(F)ccc2N(c2ccc(C)cc2F)S1(=O)=O (racemic) [Example 148, 3-[6-fluoro-1-(2-fluoro-4-methylphenyl)-2,2-dioxido-3,4-dihydro-1H-2,1-benzothiazin-3-yl]-N-methylpropan-1-amine]
31 nM	CNCCCC1Cc2cc(F)ccc2N(c2cc(F)ccc2F)S1(=O)=O (racemic) [Example 151, 3-[1-(2,5-difluorophenyl)-6-fluoro-2,2-dioxido-3,4-dihydro-1H-2,1-benzothiazin-3-yl]-N-methylpropan-1-amine]
31 nM	CNCCCC1Cc2cc(F)ccc2N(c2c(F)cccc2F)S1(=O)=O (racemic) [Example 154, 3-[1-(2,6-difluorophenyl)-6-fluoro-2,2-dioxido-3,4-dihydro-1H-2,1-benzothiazin-3-yl]-N-methylpropan-1-amine]
128 nM	CNCCCC1Cc2cc(F)ccc2N(c2ccccc2Cl)S1(=O)=O (racemic) [Example 157, 3-[1-(2-chlorophenyl)-6-fluoro-2,2-dioxido-3,4-dihydro-1H-2,1-benzothiazin-3-yl]-N-methylpropan-1-amine]
142 nM	CNCCCC1Cc2cc(F)ccc2N(c2ccccc2C)S1(=O)=O (racemic) [Example 160, 3-[6-fluoro-1-(2-methylphenyl)-2,2-dioxido-3,4-dihydro-1H-2,1-benzothiazin-3-yl]-N-methylpropan-1-amine]
189 nM	CNCCCC1Cc2cc(F)ccc2N(c2ccccc2C#N)S1(=O)=O (racemic) [Example 163, 2-{6-fluoro-3-[3-(methylamino)propyl]-2,2-dioxido-3,4-dihydro-1H-2,1-benzothiazin-1-yl}benzonitrile]
304 nM	CNCCCC1Cc2cc(F)ccc2N(c2ccccc2OC)S1(=O)=O (racemic) [Example 166, 3-[6-fluoro-1-(2-methoxyphenyl)-2,2-dioxido-3,4-dihydro-1H-2,1-benzothiazin-3-yl]-N-methylpropan-1-amine]

Same assay, conditions: MDCK-Net6 cells, 6,000 cells/well; Conc 6000 nM (6 μM); read-out: Procedure B hNET uptake (% inhibition)

inhibition at 6 µM	SMILES
35%	CNCCCC1Cc2ccccc2N(c2ccncc2)S1(=O)=O (racemic) [Example 133, 3-(2,2-dioxido-1-pyridin-4-yl-3,4-dihydro-1H-2,1-benzothiazin-3-yl)-N-methylpropan-1-amine]
